Assay results taken from PMC12305662, “Fragment-Based Development of Small Molecule Inhibitors Targeting Mycobacterium tuberculosis Cholesterol Metabolism” (Journal of Medicinal Chemistry, 2025).

How the values were obtained:
CYP143 = CYP143 (Mycobacterium tuberculosis, UniProt P9WPL3); details: fragment 1 mM, P450 4-6 µM; relative to DMSO (416 nm)
CYP125 = CYP125 (Mycobacterium tuberculosis, UniProt P9WPP1); type: binding; details: fragment 1 mM, P450 4-6 µM; Soret shift relative to DMSO (393 nm)
Sequence of CYP125 (P9WPP1 whole entry, the tested form may be a part): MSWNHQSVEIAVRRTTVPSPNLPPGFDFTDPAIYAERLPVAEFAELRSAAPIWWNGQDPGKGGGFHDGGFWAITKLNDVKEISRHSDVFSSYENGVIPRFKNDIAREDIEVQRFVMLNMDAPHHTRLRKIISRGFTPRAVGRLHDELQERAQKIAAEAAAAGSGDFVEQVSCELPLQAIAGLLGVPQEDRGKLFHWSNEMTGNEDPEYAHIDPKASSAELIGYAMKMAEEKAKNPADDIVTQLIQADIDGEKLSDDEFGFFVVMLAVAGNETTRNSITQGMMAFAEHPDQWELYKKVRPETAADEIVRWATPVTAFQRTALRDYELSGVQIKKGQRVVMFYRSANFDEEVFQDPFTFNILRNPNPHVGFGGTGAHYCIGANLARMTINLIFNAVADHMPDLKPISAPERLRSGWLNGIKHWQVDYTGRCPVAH

CYP142 = CYP142 (Mycobacterium tuberculosis, UniProt P9WPL5); details: fragment 1 mM, P450 4-6 µM; relative to DMSO (418.5 nm)
Sequence of CYP142 (P9WPL5 whole entry, the tested form may be a part): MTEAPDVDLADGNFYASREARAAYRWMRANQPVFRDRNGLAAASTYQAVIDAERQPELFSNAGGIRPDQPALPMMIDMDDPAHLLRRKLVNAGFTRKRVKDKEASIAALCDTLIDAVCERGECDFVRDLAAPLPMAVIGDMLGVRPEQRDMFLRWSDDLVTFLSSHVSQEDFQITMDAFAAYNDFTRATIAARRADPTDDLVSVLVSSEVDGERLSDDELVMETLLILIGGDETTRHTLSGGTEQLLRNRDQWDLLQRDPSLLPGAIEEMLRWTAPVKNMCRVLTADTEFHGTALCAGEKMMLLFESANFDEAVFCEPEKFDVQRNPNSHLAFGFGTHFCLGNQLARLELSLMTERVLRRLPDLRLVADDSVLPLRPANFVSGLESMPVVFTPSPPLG

CYP144 = CYP144 (Mycobacterium tuberculosis, UniProt P9WPL1); details: fragment 1 mM, P450 4-6 µM; relative to DMSO (421 nm)
Sequence of CYP144 (P9WPL1 whole entry, the tested form may be a part): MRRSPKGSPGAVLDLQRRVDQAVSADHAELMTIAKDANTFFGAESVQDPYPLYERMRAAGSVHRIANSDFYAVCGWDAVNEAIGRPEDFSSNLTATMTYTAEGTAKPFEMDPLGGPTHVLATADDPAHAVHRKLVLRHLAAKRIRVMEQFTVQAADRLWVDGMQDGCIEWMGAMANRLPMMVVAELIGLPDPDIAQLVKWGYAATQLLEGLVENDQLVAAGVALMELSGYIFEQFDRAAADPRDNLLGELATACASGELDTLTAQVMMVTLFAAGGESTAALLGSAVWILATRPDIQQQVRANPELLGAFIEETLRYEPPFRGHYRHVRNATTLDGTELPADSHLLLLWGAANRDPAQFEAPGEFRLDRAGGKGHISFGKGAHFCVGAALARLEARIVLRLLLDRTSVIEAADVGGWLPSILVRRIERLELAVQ

CYP126 = CYP126 (Mycobacterium tuberculosis, UniProt P9WPN9); details: fragment 1 mM, P450 4-6 µM; relative to DMSO (418 nm)
Sequence of CYP126 (P9WPN9 whole entry, the tested form may be a part): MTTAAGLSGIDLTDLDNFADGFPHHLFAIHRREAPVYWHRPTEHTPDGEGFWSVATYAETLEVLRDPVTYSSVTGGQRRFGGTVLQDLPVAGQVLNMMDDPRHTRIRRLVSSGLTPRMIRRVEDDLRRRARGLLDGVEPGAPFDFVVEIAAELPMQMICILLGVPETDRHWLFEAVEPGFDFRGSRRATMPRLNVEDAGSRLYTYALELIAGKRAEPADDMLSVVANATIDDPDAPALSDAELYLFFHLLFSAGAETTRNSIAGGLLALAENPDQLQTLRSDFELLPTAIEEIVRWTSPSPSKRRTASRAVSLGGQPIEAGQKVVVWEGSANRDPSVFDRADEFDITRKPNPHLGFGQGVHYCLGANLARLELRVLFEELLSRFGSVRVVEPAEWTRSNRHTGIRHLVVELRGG

CYP124 = CYP124 (Mycobacterium tuberculosis, UniProt P9WPP3); details: fragment 1 mM, P450 4-6 µM; relative to DMSO (419 nm)
Sequence of CYP124 (P9WPP3 whole entry, the tested form may be a part): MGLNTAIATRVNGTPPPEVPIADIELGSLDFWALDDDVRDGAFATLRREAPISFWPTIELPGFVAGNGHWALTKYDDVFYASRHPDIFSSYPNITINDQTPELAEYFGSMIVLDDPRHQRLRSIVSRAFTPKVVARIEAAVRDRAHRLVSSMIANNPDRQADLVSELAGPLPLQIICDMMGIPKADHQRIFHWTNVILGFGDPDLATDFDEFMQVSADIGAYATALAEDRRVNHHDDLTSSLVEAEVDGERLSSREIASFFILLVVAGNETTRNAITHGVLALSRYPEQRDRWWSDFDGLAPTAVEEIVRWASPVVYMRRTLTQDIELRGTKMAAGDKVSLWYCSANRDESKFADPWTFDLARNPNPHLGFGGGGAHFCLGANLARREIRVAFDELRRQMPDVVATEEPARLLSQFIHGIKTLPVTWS

CYP121 = CYP121 (Mycobacterium tuberculosis, UniProt P9WPP7); details: fragment 1 mM, P450 4-6 µM; relative to DMSO (417 nm)
Sequence of CYP121 (P9WPP7 whole entry, the tested form may be a part): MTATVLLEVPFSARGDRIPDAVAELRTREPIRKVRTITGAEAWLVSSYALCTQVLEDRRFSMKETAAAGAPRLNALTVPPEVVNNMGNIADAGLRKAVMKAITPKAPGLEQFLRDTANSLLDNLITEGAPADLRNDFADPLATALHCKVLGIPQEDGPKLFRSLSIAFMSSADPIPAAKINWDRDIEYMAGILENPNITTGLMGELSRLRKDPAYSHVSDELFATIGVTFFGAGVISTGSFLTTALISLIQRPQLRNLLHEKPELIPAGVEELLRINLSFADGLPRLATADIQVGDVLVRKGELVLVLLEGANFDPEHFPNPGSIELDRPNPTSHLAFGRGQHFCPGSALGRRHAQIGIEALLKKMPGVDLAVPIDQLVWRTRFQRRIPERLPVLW

Sequence of CYP143 (P9WPL3 whole entry, the tested form may be a part): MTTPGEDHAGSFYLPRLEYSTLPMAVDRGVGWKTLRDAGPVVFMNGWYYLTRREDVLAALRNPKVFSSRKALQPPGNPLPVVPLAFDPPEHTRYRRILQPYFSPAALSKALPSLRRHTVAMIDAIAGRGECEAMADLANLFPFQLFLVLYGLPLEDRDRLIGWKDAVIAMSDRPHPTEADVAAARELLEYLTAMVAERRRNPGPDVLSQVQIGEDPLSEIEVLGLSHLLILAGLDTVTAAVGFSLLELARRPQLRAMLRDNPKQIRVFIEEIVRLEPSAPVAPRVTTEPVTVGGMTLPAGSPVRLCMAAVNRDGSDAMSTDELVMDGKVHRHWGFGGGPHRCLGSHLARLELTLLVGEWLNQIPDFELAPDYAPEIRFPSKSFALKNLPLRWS

| Structure (SMILES) | Δλmax (nm) CYP143, fragment screen (CYP143) | Δλmax (nm) CYP125, fragment screen (CYP125) | Δλmax (nm) CYP142, fragment screen (CYP142) | Δλmax (nm) CYP144, fragment screen (CYP144) | Δλmax (nm) CYP126, fragment screen (CYP126) | Δλmax (nm) CYP124, fragment screen (CYP124) | Δλmax (nm) CYP121, fragment screen (CYP121) |
| --- | --- | --- | --- | --- | --- | --- | --- |
| Oc1cccnc1O [compound 42] | 0.5 nm | 0 nm | 0 nm | 0 nm | 0 nm | -1 nm | -1 nm |
| CCc1nc(C)c[nH]1 [compound 67] | 0 nm | 0 nm | 0 nm | 0 nm | 0 nm | 0 nm | -1 nm |
| O=C(O)CCc1nc2ccccc2[nH]1 [compound 34] | 0.5 nm | 0 nm | 0 nm | 0 nm | 0 nm | 0 nm | 0 nm |
| Nc1ccc(-n2cccn2)cc1 [compound 49] | 1 nm | 0 nm | 0 nm | 0 nm | 2 nm | 0 nm | 0 nm |
| Clc1nccc2ccccc12 [compound 56] | -0.5 nm | 0 nm | 0 nm | 0 nm | 0 nm | 0 nm | -2 nm |
| O=C(O)c1ccnnc1 [compound 1] | 0.5 nm | 0 nm | 0 nm | 0 nm | 0 nm | 0 nm | -1 nm |
| NC1=NN(c2ccccc2)C(=O)C1 [compound 13] | 0 nm | 0 nm | 0 nm | 0 nm | 0 nm | -1 nm | 0 nm |
| O=C1CCN(c2ccccc2)N1 [compound 64] | 1 nm | 0 nm | 1.5 nm | 0 nm | 0 nm | -1 nm | 0 nm |
| Nc1cc(Cl)nc(Cl)c1 [compound 28] | 0 nm | 0 nm | 0 nm | 0 nm | 0 nm | 0 nm | 0 nm |
| O=C(O)c1cccc(-c2cccnc2)c1 [compound 74] | 1 nm | 0 nm | 0 nm | 0 nm | 0 nm | 0 nm | 0 nm |
| O=c1ccc(Br)c[nH]1 [compound 58] | 0.5 nm | 0 nm | 0 nm | 0 nm | -1 nm | 0 nm | 0 nm |
| N#Cc1ncccc1F [compound 72] | 0 nm | 0 nm | 0 nm | 0 nm | 0 nm | 0 nm | 0 nm |
